Experimental data taken from US12324827B2, “Combination therapy for the treatment of migraines” (The University of Chicago, priority 2019, dated 2025).

What was measured:
[1] = system: cortical spreading depression; test: Number of cortical spreading depressions evoked over 90 minutes; type: in vivo, rat; settings: CSD stimulus every nine minutes for 90 minutes, an hour after intravenous injection, n=3
From the text: (§1) Animals are stabilized for an hour under anesthesia (1.5% isoflurane in oxygen) after head sutures are removed, eyes coated with Artificial Tears and animals made ready for initiation and recording of CSD under deeper (5%) isoflurane in oxygen, which is then lowered back to 1.5% isoflurane in oxygen during CSD recordings. CSD is initiated as described above one to four hours after antibody infusion. All animals receive nine KCl injections. Then, isoflurane is raised to 5% and animals anesthetized with intraperitoneal ketamine and Xylazine followed quickly by euthanasia via intra-cardiac perfusion with 0.1 mL heparin (1,000 units/ml), then 250 ml of normal saline and finally 250 ml 4% paraformaldehyde in 0.2 M phosphate buffer. Brains plus upper cervical cord and trigeminal ganglia are harvested for measurement of c-fos immunostaining in the trigeminocervical complex and CGRP and oxidative stress (malondialdehyde) levels in the trigeminal ganglion ipsilateral to CSD. Animal groups and endpoints are defined below.
First, the inventors confirmed that there was no significant difference in the number of evoked CSDs between groups (FIG. 16). Sham nasal delivery was, as reported (i.e., 50 μl succinate buffer delivered as 5 μl aliquots to alternating nostrils every two minutes) while under isoflurane inhalational anesthesia (Won and Kraig, 2020). […]

[2] = Blood glucose after nose-to-brain (N2B) delivery of IGF-1; type: in vivo, Wistar rats; settings: 1.0-hour after N2B IGF-1 150 μg, n=4/group
[3] = system: trigeminocervical complex c-fos; test: Trigeminocervical c-fos immunostaining after recurrent CSD, nasal IGF-1 with or without intravenous anti-CGRP antibody (Example 5); type: in vivo, rat
Description: Migraine will be modeled using recurrent CSD (Grinberg et al., 2019; Won and Kraig 2019a,b; Won and Kraig, 2020). Briefly, the day before recurrent CSD, animals are anesthetized with inhalational isoflurane in oxygen (2-5%) and treated with intranasal IGF-1 (150 μg in 50 μl succinate buffer).
Anesthetized animals are then transferred to a standard stereotaxic head holder under 2-5% isoflurane inhalational anesthesia. Eyes are coated with Artificial Tears and head shaved, cleansed with Betadine, and 0.1 mL of 0.25% Bupivacaine is injected subcutaneously to either side of what will be a left of midline head incision made five minutes later. The underlying skull is scraped free of soft tissue and hemostasis achieved with bone wax. Two 1-2 mm craniotomies are drilled with a Dremel tool at +3 mm anterior to bregma and two mm lateral to the midline (for 0.5M KCl 10-30 nL pressure injections used to initiate CSD. A second craniotomy is placed six mm caudal to bregma and 4.5 mm lateral to the midline (for recording CSD. The surgery area is wiped with Betadine and incision closed with three wound clips. Animals are allowed to awaken and then returned to overnight standard Animal Facility Housing.
The next day (i.e., 20-24 hours later) animals are again be anesthetized as above with inhalational isoflurane and the left femoral vein cannulated for antibody infusion. Select groups of animals (see below) are treated with intravenous infusion either 1 mg/kg anti-CGRP (ab81887) or isotype IgG2a control in 0.5-0.6 ml normal saline. After infusions, the femoral incision is closed with wound clips.
as §1, with “Brains plus upper cervical cord and trigeminal ganglia are harvested for measurement of c-fos immunostaining in the trigeminocervical complex and CGRP and oxidative stress (malondialdehyde) levels in the trigeminal ganglion ipsilateral to CSD. Animal groups and endpoints are defined below.” left out
2. […] All animals for nasal delivery of IGF-1 plus intravenous treatment (i.e., one ml saline or anti-CGRP antibody) followed by 90 minutes of evoked CSDs) were analyzed for trigeminal cervical complex c-fos immunostaining and trigeminal ganglion malondialdehyde immunostaining as previously described (Won and Kraig, 2020). […]

blood CGRP = test: CGRP plasma assay (ELISA) after recurrent spreading depression; type: in vivo, rat
Description: Blood was collected via cardiac puncture using a 21 gauge syringe needle and transferred into a BD Vacutainer K3 EDTA blood collection tube (366450, Becton, Dickinson & Co., Franklin Lakes, NJ). Samples were spun 1,500 g×10 min at 4° C. The plasma was transferred to sterile 2.0 mL, screw cap, polypropylene tubes and stored at −80° C. until analysis. Plasma samples were sent to Cayman Chemical Company (Ann Arbor, Michigan) for analysis of CGRP content using ELISA methods. According to the vendor, the detection limit is <10 pg/mL.

Substance: IGF-1: human recombinant IGF-1 (#191-G1; R&D Systems), 150 μg in 50 μL sodium succinate buffer, delivered nose-to-brain
- number of CSDs evoked [1]: 7±0.41
- blood glucose level [2]: 139 ± 24 mg/dL
- reduction in trigeminocervical c-fos activation from recurrent CSD ([3]; counts from −4.5 and 6.0 mm caudal to the obex): 45%
- ln ratio (IGF-1/sham) of trigeminocervical c-fos ([3]; nasal IGF-1 alone, original Won and Kraig 2020 data, n=5): −0.56±0.08
- ln ratio (IGF-1/sham) of trigeminocervical c-fos ([3]; nasal IGF-1 plus intravenous saline a day later, new data, n=3): −0.548±0.16
- ln ratio of trigeminocervical c-fos, combined groups ([3]; nasal IGF-1 with or without subsequent intravenous saline, n=10): −0.547±0.11
- blood (plasma) CGRP level after recurrent SD (blood CGRP; IGF-1 pretreatment, n=6/group, three samples below the detection limit): 7.7 ± 1.6 pg/mL
- changes in blood CGRP levels after pretreatment followed by recurrent SD (blood CGRP; IGF-1 versus vehicle): no significant (p=0.347, power=0.136) changes
